Read-outs that look alike come from different tables or passages of the source.
Assays:
murine CSF1R = biological target: T1, murine CSF1R (Mus musculus, UniProt P09581); experiment: CSF1R inhibition in RAW264.7 cells (western blot of pCSF1R); assay type: cell-based
T1 construct: Western blot analysis of total lysates (40 µg/lane) from mouse RAW264.7 cells treated as indicated; endogenous in cells; host or cells: RAW264.7 (murine macrophages)
T1 sequence (P09581 20-977): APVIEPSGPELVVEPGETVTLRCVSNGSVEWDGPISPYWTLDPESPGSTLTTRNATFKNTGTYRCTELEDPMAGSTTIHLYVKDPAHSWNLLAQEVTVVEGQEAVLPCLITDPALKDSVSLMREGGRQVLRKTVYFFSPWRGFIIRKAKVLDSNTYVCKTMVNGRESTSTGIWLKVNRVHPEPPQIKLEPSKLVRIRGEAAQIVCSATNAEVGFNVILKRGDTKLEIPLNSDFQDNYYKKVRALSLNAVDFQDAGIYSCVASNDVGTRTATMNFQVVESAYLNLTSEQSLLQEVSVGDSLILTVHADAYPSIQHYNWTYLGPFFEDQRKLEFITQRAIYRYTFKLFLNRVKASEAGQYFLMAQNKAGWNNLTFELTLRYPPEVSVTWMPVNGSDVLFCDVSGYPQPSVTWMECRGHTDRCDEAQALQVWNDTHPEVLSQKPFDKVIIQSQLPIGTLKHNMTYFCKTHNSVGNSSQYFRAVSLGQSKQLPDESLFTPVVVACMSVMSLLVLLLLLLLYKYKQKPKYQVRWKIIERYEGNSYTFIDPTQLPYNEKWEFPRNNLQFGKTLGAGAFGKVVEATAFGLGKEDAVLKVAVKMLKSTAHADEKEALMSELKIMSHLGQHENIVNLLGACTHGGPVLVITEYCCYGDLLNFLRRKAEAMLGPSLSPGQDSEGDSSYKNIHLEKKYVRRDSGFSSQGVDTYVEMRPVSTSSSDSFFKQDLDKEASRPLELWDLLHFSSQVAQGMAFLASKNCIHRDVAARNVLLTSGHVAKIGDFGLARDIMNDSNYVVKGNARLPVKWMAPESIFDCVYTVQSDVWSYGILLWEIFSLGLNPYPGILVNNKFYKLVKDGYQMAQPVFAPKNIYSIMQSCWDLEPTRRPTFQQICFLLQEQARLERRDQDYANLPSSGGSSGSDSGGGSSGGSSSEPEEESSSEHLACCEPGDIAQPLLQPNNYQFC
Method: RAW264.7 cells (10^6) were seeded into cell culture dishes 6 cm in diameter and incubated in 4 mL RPMI/10% fetal bovine serum (Biochrom) for 24 h at 37 °C in a humidified 5% CO2 atmosphere. Cells were washed once with phosphate-buffered saline (PBS) and starved in 3 mL RPMI/0.1% bovine serum albumin for another 24 h. Cells were then treated for 1 h at 37 °C with drugs at the indicated final concentrations, with 0.5% DMSO as vehicle control, or left untreated, and finally stimulated for 2 min at 37 °C with 100 ng/mL recombinant mouse CSF1 (R&D Systems) by adding 1 mL prewarmed starving medium containing 400 ng/mL CSF1. Dishes were placed on ice and cells were immediately washed with ice-cold PBS and lysed with 50 µL lysis buffer (50 mM HEPES pH 7.5, 150 mM NaCl, 1.5 mM MgCl2, 10% glycerol, 1% Triton X-100, 0.5% desoxycholate, 0.2% sodium dodecyl sulfate, 1 mM ethylene glycol-bis[β-aminoethyl ether]-N,N,N′,N′-tetraacetic acid, 100 mM NaF, 10 mM Na4P2O7, 1 mM Na3VO4, 1% Phosphatase Inhibitor Cocktail 3 [Sigma-Aldrich], 1 mM phenylmethyl sulfonyl fluoride, Complete Protease Inhibitor Cocktail [Roche CustomBiotech; 1 tablet/10 mL], and 50 U/mL Benzonase [Sigma-Aldrich]). Lysed cells were scraped into Eppendorf tubes, incubated on ice for 20 min, and centrifuged at 4 °C for 10 min at 13,000 rpm; supernatants (lysates) were transferred into new tubes and stored at −80 °C.
Protein concentrations were determined using Pierce bicinchoninic acid assay (Thermo Fisher Scientific) and 40 µg/lane of total lysate was separated by SDS-PAGE on 4–12% Criterion XT Bis–Tris Gels (Bio-Rad) and subsequently transferred to polyvinylidene difluoride membranes using the Trans Blot Turbo Blotting System (Bio-Rad). For antigen detection, membranes were blocked with PBS Odyssey blocking reagent (LI-COR Biosciences) for 1 h at room temperature (RT). Primary antibodies were incubated overnight at 4 °C and the fluorescent secondary antibodies were incubated for 1 h at RT. After each antibody incubation, blots were washed with PBS with 0.05% Tween 20 (Carl Roth) for 15–30 min at RT. Fluorescent signals were quantitatively captured using the Odyssey DLx Infrared Imaging System (LI-COR Biosciences) and the half-maximal inhibitory concentration (IC50) values were calculated using GraphPad software (version 7 or newer).

[1] = PK of REG in plasma and CT26 tumor tissue; assay type: in vivo, mouse; details: after the last dose, CT26 mice
Method: CT26 tumor cells were cultivated in RPMI 1640 with 2 mM L-glutamine (Gibco, Invitrogen GmbH) containing 10% fetal bovine serum (Gibco) at 37 °C and 5% CO2. Cell lines were maintained in culture for no longer than 6 months, and mycoplasma contamination was excluded by enzymatic test (MycoAlert, Lonza) prior to in vivo application. Tumor cells (2 × 10^6) were transplanted subcutaneously into 6- to 8-week-old female BALB/c mice. Control mice were subjected to sham surgery without tumor cell transplantation. Blood and tumor samples were collected from untreated control and tumor-bearing mice on days 4 and 8 (n = 3 mice/group). […] For interim analysis, blood and tumor tissue were collected from each group (n = 3 mice/group) after 7 days of treatment. For pharmacokinetic (PK)/pharmacodynamic (PD) relationship analysis, tissues were taken 24 h after the penultimate dose and 1, 3, 7, and 24 h after the ultimate dose. Tumor diameter was measured by caliper and body weight was determined at least twice weekly. Tumor volume was calculated using the formula 0.5 × a × b^2, where a and b are the long and short diameters of the tumor, respectively.
PK parameters, namely AUC(0–24)ss and Cmax, were calculated from plasma and tumor concentrations using a noncompartmental analysis.

SMILES: CNC(=O)c1cc(Oc2ccc(NC(=O)Nc3ccc(Cl)c(C(F)(F)F)c3)c(F)c2)ccn1 [REG, Regorafenib]
- IC50 (murine CSF1R; RAW264.7 cells, drug 1 h, CSF1 100 ng/mL 2 min, mean ± SD (replicates), M-4, M-5 from pCSF1R bands without relating to total CSF1R, read-out: Mean kinase IC50 values: P(Y559)CSF1R [WB]): 59 ± 16 nM
- IC50 (murine CSF1R; RAW264.7 cells, drug 1 h, CSF1 100 ng/mL 2 min, mean ± SD (replicates), M-4, M-5 from pCSF1R bands without relating to total CSF1R, read-out: Mean kinase IC50 values: P(Y721)CSF1R [WB]): 27 ± 14 nM
- IC50 (murine CSF1R; approximate value of the discussion, read-out: IC50, murine CSF1R in RAW264.7 macrophages): ~30 nM
- time of highest concentration of REG (Cmax) in plasma [1]: ≤ 3 h

From publication PMC10069031 (European Journal of Medical Research, 2023)
